Like-named read-outs stand apart in the source and are kept apart here.
Experiments:
human α4β7 = target: T1, human α4β7 (Homo sapiens, UniProt P13612+P26010); experiment: α4β7-K562 Cell Adhesion Assay (α4β7 Mediated Adhesion/VCAM-1); type: cell-based
T1 construct: expressed in transfected cells
T1 sequence (P13612 34-1032): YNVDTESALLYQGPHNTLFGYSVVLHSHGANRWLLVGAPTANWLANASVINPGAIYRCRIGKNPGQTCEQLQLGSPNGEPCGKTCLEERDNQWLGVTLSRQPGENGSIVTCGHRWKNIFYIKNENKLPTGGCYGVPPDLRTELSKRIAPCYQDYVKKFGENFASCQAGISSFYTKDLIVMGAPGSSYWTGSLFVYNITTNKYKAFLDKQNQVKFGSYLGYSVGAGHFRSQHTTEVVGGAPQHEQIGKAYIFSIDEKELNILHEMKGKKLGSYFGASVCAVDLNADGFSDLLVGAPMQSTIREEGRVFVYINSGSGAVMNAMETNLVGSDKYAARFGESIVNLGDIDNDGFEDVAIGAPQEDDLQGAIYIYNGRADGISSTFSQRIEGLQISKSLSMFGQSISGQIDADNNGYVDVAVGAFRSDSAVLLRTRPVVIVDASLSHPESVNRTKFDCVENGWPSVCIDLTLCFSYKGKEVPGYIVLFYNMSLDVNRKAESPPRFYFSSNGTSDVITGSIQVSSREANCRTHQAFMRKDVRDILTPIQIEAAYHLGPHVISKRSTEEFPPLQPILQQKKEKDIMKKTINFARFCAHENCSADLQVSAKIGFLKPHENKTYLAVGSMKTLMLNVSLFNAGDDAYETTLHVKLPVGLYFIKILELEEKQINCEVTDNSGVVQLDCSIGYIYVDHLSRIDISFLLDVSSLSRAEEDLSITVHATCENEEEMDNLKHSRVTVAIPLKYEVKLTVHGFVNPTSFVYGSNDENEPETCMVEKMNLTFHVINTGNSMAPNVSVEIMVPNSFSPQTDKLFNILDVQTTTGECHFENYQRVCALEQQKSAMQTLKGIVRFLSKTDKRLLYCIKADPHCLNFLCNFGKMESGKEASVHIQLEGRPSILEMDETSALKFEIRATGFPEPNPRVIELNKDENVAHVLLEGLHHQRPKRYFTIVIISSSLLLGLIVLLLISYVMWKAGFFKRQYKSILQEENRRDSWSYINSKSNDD
T1 sequence (P26010 20-798): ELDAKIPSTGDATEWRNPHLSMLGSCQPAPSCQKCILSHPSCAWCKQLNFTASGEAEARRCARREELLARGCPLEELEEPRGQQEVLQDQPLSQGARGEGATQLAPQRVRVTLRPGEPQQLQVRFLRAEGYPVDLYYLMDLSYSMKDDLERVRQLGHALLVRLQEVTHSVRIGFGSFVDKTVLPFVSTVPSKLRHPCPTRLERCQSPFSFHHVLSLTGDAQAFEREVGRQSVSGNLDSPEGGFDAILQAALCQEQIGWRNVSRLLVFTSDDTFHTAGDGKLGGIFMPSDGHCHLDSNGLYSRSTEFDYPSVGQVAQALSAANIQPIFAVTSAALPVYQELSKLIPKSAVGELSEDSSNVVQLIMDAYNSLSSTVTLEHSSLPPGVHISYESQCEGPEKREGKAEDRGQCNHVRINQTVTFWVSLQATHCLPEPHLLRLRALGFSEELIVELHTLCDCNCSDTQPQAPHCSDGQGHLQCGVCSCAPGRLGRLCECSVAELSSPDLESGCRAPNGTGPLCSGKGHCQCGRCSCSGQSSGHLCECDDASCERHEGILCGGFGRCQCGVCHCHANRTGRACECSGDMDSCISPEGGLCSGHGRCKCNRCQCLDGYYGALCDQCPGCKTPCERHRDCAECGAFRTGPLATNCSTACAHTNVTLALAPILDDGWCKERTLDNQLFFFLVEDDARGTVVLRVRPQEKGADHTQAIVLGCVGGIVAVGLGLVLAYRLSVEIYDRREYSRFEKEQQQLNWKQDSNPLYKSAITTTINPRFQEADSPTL
Description: α4β7-K562 Cell Adhesion Assay (α4β7 Mediated Adhesion/VCAM-1)
(§1) Immulon 96 well plates (Dynex) were coated with 100 μL recombinant hVCAM-1 at 4.0 μg/mL in 0.05 M NaCO3 buffer pH 9.0 overnight at 4° C. (R&D Systems). Plates were washed 3 times in PBS with 1% BSA and blocked for 1 h @ room temperature in this buffer. PBS was removed and compounds to be tested (50 μL) were added at 2× concentration. A stable cell line of K562 cells expressing human α4β7, (50 μL at 2×10^6/mL) labeled with 5 μM Calcein AM (Molecular Probes) for 1 h at 37° C., were added to each well and allowed to adhere for 1 h at room temperature. Plates were washed 3× in PBS+1% BSA and cells were lysed for 15 minutes in 100 μL of 1 M Tris pH 8.0 with 1% SDS. The plate was read at 485 nm excitation and 530 nm emission.

α4β1 integrin receptor = target: T2, α4β1 integrin receptor (Homo sapiens, UniProt P05556+P13612); experiment: Ramos Cell Adhesion Assay (α4β1 Mediated Adhesion/VCAM-1); type: cell-based
T2 construct: Ramos Cell Adhesion Assay (α4β1 Mediated Adhesion/VCAM-1); endogenous in cells; host or cells: Ramos cells
T2 sequence (P05556 21-798, one chain of several): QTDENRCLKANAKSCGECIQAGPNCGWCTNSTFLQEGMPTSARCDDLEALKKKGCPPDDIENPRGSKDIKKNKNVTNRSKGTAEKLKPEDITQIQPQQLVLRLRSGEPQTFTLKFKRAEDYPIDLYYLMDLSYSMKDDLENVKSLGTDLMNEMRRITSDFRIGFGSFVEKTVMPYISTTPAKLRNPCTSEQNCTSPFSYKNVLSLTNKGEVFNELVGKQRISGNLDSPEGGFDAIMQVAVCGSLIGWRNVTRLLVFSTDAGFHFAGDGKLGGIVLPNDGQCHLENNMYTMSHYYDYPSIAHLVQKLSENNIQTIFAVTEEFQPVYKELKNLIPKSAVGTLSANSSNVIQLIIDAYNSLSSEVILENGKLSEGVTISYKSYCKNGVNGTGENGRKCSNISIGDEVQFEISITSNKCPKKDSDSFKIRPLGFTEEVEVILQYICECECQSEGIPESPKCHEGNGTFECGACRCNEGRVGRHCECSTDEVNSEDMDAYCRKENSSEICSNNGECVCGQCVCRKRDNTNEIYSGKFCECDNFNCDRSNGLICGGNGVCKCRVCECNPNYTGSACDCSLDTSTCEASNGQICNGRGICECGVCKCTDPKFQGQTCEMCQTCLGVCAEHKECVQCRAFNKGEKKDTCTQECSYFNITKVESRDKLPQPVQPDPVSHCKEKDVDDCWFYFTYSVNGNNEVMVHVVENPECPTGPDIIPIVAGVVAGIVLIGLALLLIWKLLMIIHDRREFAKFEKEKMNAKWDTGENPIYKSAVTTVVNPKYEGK
Description: Ramos Cell Adhesion Assay (α4β1 Mediated Adhesion/VCAM-1)
as §1, with “Ramos cells,” for “A stable cell line of K562 cells expressing human α4β7,”

[1] = Table I, racemic mixtures and resolved (S,S) and (R,S) diastereomers, read-out: Antagonist IC50 Activity α4β7
[2] = Table I, racemic mixtures and resolved (S,S) and (R,S) diastereomers, read-out: Antagonist IC50 Activity α4β1
[3] = Table III, read-out: Inhibition of Binding of Ramos Cells to Immobilized VCAM-1 IC50
[4] = Table IV, μM, read-out: Inhibition of Binding of K562 Cells to Immobilized VCAM-1 IC50
[5] = Table III, μM, read-out: Inhibition of Binding of Ramos Cells to Immobilized VCAM-1 IC50
[6] = Table IV, read-out: Inhibition of Binding of K562 Cells to Immobilized VCAM-1 IC50

Structure (SMILES) | IC50 (α4β1 integrin receptor; [3]) [µM] | IC50 (human α4β7; [4]) [µM] | IC50 (α4β1 integrin receptor; [5]) [µM] | other results
CN(C)C(=O)Oc1ccc(C[C@H](NC(=O)C2C3CCC(CC3)N2S(=O)(=O)c2ccccc2)C(=O)O)cc1 (mixture of isomers) [Cpd 52, O-[(dimethylamino)carbonyl]-N-[[2-(phenylsulfonyl)-2-azabicyclo[2.2.2]oct-3-yl]carbonyl]-L-tyrosine] |  |  |  | IC50 (human α4β7): 0.998 µM; IC50 (α4β1 integrin receptor; Antagonist IC50 Activity α4β1, Table I, racemic mixtures and resolved (S,S) and (R,S) diastereomers): 0.124 µM; IC50 (α4β1 integrin receptor; Inhibition of Binding of Ramos Cells to Immobilized VCAM-1 IC50, Table III): 0.124 µM
Cc1ccc(S(=O)(=O)N2C3CCC(CC3)C2C(=O)N[C@@H](Cc2ccc(NC(=O)c3c(C(C)C)cc(C(C)C)cc3C(C)C)cc2)C(=O)O)cc1 (stereo partly drawn) [Cpd 31, 4-[[2,4,6-tris(1-methylethyl)benzoyl]amino]-N-[[2-[(4-methylphenyl)sulfonyl]-2-azabicyclo[2.2.2]oct-3-yl]carbonyl]-L-phenylalanine] |  | > 10 | > 5 | 
Cc1ccc(S(=O)(=O)N2C3CCC(CC3)C2C(=O)N[C@@H](Cc2cccc(NC(=O)c3c(F)cccc3F)c2)C(=O)O)cc1 (stereo partly drawn) [Cpd 35, 3-[(2,6-difluorobenzoyl)amino]-N-[[2-[(4-methylphenyl)sulfonyl]-2-azabicyclo[2.2.2]oct-3-yl]carbonyl]-L-phenylalanine] |  | > 10 | > 5 | 
Cc1ccc(S(=O)(=O)N2C3CCC(CC3)C2C(=O)N[C@@H](Cc2ccc(NC(=O)c3c(Cl)cc(Cl)cc3Cl)cc2)C(=O)O)cc1 (stereo partly drawn) [Cpd 2, 4-[(2,4,6-trichlorobenzoyl)amino]-N-[[2-[(4-methylphenyl)sulfonyl]-2-azabicyclo[2.2.2]oct-3-yl]carbonyl]-L-phenylalanine] | 0.051 |  |  | IC50 (human α4β7; [6]): 0.098 µM
CC(C)(C)OC(=O)N1CCC(C(=O)Nc2ccc(C[C@H](NC(=O)[C@@H]3C4CCC(CC4)N3S(=O)(=O)c3ccccc3)C(=O)O)cc2)CC1 [Cpd 53a, 4-[[[1-[(1,1-dimethylethoxy)carbonyl]-4-piperidinyl]carbonyl]amino]-N-[[(3S)-2-(phenylsulfonyl)-2-azabicyclo[2.2.2]oct-3-yl]carbonyl]-L-phenylalanine] | 0.219 |  |  | IC50 (human α4β7; [1]): 0.693 µM; IC50 (α4β1 integrin receptor; [2]): 0.219 µM
CC(C)(C)OC(=O)N1CCC(C(=O)Nc2ccc(C[C@H](NC(=O)C3C4CCC(CC4)N3S(=O)(=O)c3ccccc3)C(=O)O)cc2)CC1 (mixture of isomers) [Cpd 53, 4-[[[1-[(1,1-dimethylethoxy)carbonyl]-4-piperidinyl]carbonyl]amino]-N-[[2-(phenylsulfonyl)-2-azabicyclo[2.2.2]oct-3-yl]carbonyl]-L-phenylalanine] | 0.067 |  |  | IC50 (human α4β7; [1]): 0.871 µM; IC50 (α4β1 integrin receptor; [2]): 0.179 µM
CC(C)N(C(=O)Oc1ccc(C[C@H](NC(=O)C2C3CCC(CC3)N2S(=O)(=O)c2ccccc2)C(=O)O)cc1)C(C)C (stereo partly drawn) [Cpd 57, O-[[bis(1-methylethyl)amino]carbonyl]-N-[[2-(phenylsulfonyl)-2-azabicyclo[2.2.2]oct-3-yl]carbonyl]-L-tyrosine] | 0.757 | > 5 |  | 

More lines, main results first:

IC50 (α4β1 integrin receptor; [3]) [µM] | IC50 (human α4β7; [4]) [µM] | IC50 (α4β1 integrin receptor; [5]) [µM] | Structure (SMILES) | other results
0.074 |  |  | O=C(N[C@@H](Cc1ccc(N2C(=O)c3ccccc3C2=O)cc1)C(=O)O)C1C2CCC(CC2)N1S(=O)(=O)c1ccccc1 (mixture of isomers) [Cpd 47, 4-(1,3-dihydro-1,3-dioxo-2H-isoindol-2-yl)-N-[[2-(phenylsulfonyl)-2-azabicyclo[2.2.2]oct-3-yl]carbonyl]-L-phenylalanine] | IC50 (human α4β7; [1]): 0.083 µM; IC50 (α4β1 integrin receptor; [2]): 0.074 µM
1.6 | > 5 |  | O=C(Nc1ccc(C[C@H](NC(=O)C2C3CCC(CC3)N2S(=O)(=O)c2ccccc2)C(=O)O)cc1)Nc1c(Cl)cccc1Cl (stereo partly drawn) [Cpd 28, 4-[[[(2,6-dichlorophenyl)amino]carbonyl]amino]-N-[[2-(phenylsulfonyl)-2-azabicyclo[2.2.2]oct-3-yl]carbonyl]-L-phenylalanine] | 
0.393 | > 10 |  | CC(C)(C)C(=O)Nc1ccc(C[C@H](NC(=O)[C@@H]2C3CCC(CC3)N2S(=O)(=O)c2ccccc2)C(=O)O)cc1 [Cpd 64, 4-[(2,2-dimethyl-1-oxopropyl)amino]-N-[[(3S)-2-(phenylsulfonyl)-2-azabicyclo[2.2.2]oct-3-yl]carbonyl]-L-phenylalanine] | 
0.139 |  |  | O=C(N[C@@H](Cc1ccc(OC(=O)N2CCOCC2)cc1)C(=O)O)C1C2CCC(CC2)N1S(=O)(=O)c1ccccc1 (stereo partly drawn) [Cpd 56, O-(4-morpholinylcarbonyl)-N-[[2-(phenylsulfonyl)-2-azabicyclo[2.2.2]oct-3-yl]carbonyl]-L-tyrosine] | IC50 (human α4β7; [6]): 0.047 µM
0.067 |  |  | O=C(Nc1ccc(C[C@H](NC(=O)C2C3CCC(CC3)N2S(=O)(=O)c2ccccc2)C(=O)O)cc1)c1c(F)cccc1F (stereo partly drawn) [Cpd 15, 4-[(2,6-difluorobenzoyl)amino]-N-[[2-(phenylsulfonyl)-2-azabicyclo[2.2.2]oct-3-yl]carbonyl]-L-phenylalanine] | IC50 (human α4β7; [6]): 1.39 µM
 | > 10 | > 5 | CN(C(=O)C1C2CCC(CC2)N1S(=O)(=O)c1ccccc1)[C@@H](Cc1ccc(OCc2c(Cl)cccc2Cl)cc1)C(=O)O (stereo partly shown) [Cpd 38, O-[(2,6-dichlorophenyl)methyl]-methyl-N-[[2-(phenylsulfonyl)-2-azabicyclo[2.2.2]oct-3-yl]carbonyl]tyrosine] | 
 | > 10 | > 5 | O=C(N[C@@H](CCc1ccccc1)C(=O)O)C1C2CCC(CC2)N1S(=O)(=O)c1ccccc1 (stereo partly drawn) [Cpd 46, α(S)-[[[2-(phenylsulfonyl)-2-azabicyclo[2.2.2]oct-3-yl]carbonyl]amino]-benzenebutanoic acid] | 
 | > 10 | > 5 | Cc1ccc(S(=O)(=O)N2C3CCC(CC3)C2C(=O)N[C@@H](Cc2ccc(-c3ccccc3)cc2)C(=O)O)cc1 (stereo partly drawn) [Cpd 33, 4-phenyl-N-[[2-[(4-methylphenyl)sulfonyl]-2-azabicyclo[2.2.2]oct-3-yl]carbonyl]l-L-phenylalanine] | 

Source: patent US6960597B2, “Aza-bridged-bicyclic amino acid derivatives as α4 integrin antagonists” (Orth-McNeil Pharmaceutical, Inc., priority 2000, dated 2005)
